Our source for the Activity values is ChEMBL document CHEMBL6121015, “Correction of aberrant splicing of ELP1 pre-mRNA by kinetin derivatives - A structure activity relationship study” (Eur J Med Chem, 2025).

Calls of active or inactive are those of the source. The calls are words filed in the database; no cut-off is given here. Some results are limits rather than exact numbers.

Data set [1] concerns GM04663. The data set is described as follows: Corrector activity at aberrant splicing of ELP1 gene […] mutant (unknown origin) in human GM04663 cells assessed as increase in exon 20 inclusion at 50 uM by Capillary electrophoresis. The class given is cell-based.
The test system of data set [2] is GM04663. The data set is described as follows: Corrector activity at aberrant splicing of ELP1 gene […] mutant (unknown origin) in human GM04663 cells assessed as increase in exon 20 inclusion at 10 uM by Capillary electrophoresis. The data set is classed as cell-based.
Data set [3] can be described thus: Cytotoxicity against human GM04663 cell assessed as decrease in resazurin signal incubated with resazurin for 48 hrs by M2 reader analysis. Set-up: scale not given: the % may be the effect or the level left. The data set is classed as functional. For orientation: Alamar Blue is a resazurin reagent that responds to reducing activity.
For data set [4], the system named is BJ. The experiment in a line: Cytotoxicity against human BJ cell assessed as decrease in resazurin signal incubated with resazurin for 3 hrs by M2 reader analysis. The class given is toxicity, cell-based. Set-up: scale not given: the % may be the effect or the level left.
In data set [5] the test system is HaCaT. The experiment in a line: Cytotoxicity against human HaCaT cell assessed as decrease in resazurin signal incubated with resazurin for 3 hrs by M2 reader analysis. The data set is classed as toxicity, cell-based. Also on record: scale not given: the % may be the effect or the level left.
Data set [6] concerns ARPE-19. The experiment in a line: Cytotoxicity against human ARPE-19 cell assessed as decrease in resazurin signal incubated with resazurin for 1 hrs by M2 reader analysis. The data set is classed as toxicity, cell-based. Set-up: scale not given: the % may be the effect or the level left. To be noted: arpe-19, 1 h.

For the compound `Nc1nc(Cl)cc(NCc2ccco2)n1`, the result in data set [1] was Active.
Take `C=CCNc1nc2c(NCc3ccco3)ncnc2[nH]1`: the result in data set [2] was Active.
Still for that read-out and setting: then `c1coc(CNc2ncnc3[nH]cnc23)c1`, with “Active”.
For `NCCNc1nc2c(NCc3ccco3)ncnc2[nH]1`, the outcome in data set [2] was Active.
Regarding `c1ccc(Nc2nc3c(NCc4ccco4)ncnc3[nH]2)cc1`, the result in data set [2] was Active. The Activity in data set [3] is >20%; in data set [4], > 20%; in data set [5], > 20%; in data set [6] it was < 20%.
Regarding `Nc1c(Cl)ncnc1NCc1ccco1`, the outcome in data set [1] was Active.
For `CN(Cc1ccco1)c1cc(Cl)nc(N)n1`, the outcome in data set [1] was Active.
As to `Clc1cc(NCc2ccco2)ncn1`, the outcome in data set [1] was Active.
For `Cn1cnc2ncnc(NCc3ccco3)c21`, the result in data set [2] was Active.
Turning to `Fc1nc(NCc2ccco2)c2nc[nH]c2n1`, in data set [2], the result was Active. Also, the Activity is given as >20% in data set [3], > 20% in data set [4], > 20% in data set [5] and < 20% in data set [6].
On to `c1csc(CNc2[nH]cnc3ncnc2-3)c1`, for which the outcome in data set [2] was inactive.
For the compound `Clc1nc(NCc2ccco2)c2[nH]cnc2n1`, the result in data set [2] was Active. In addition, the Activity in data set [3] was >20%; in data set [4], > 20%; in data set [5], > 20%; in data set [6] it was < 20%.
Turning to `CCCOc1nc2c(NCc3ccco3)ncnc2[nH]1`, the result in data set [2] was Active.
For `c1ccc(CNc2nc3c(NCc4ccco4)ncnc3[nH]2)cc1`, the result in data set [2] was Active. Also, the Activity in data set [3] was >20%; in data set [4], > 20%; in data set [5] it was > 20%; in data set [6], < 20%.
With `CCCn1cnc2ncnc(NCc3ccco3)c21`, the outcome in data set [2] was inactive.
For `Ic1nc2c(NCc3ccco3)ncnc2[nH]1`, the outcome in data set [2] was inactive.
As for `O=c1[nH]c2ncnc(NCc3ccco3)c2[nH]1`, the result in data set [2] was Active.
Regarding `Clc1nc(NCc2ccco2)c2nc(Cl)[nH]c2n1`, the result in data set [2] was Active.
For the compound `c1coc(CNc2ncnc3[nH]c(NCCCN4CCOCC4)nc23)c1`, in data set [2], the result was Active.
Take `CSc1nc2c(NCc3ccco3)ncnc2[nH]1`: the outcome in data set [2] was Active.
Consider `CN(C)CCOc1nc2c(NCc3ccco3)ncnc2[nH]1`, for which the outcome in data set [2] was Active.
`Cn1cnc2nc(Cl)nc(NCc3ccco3)c21`: the result in data set [2] was Active.
For the compound `COc1nc2c(NCc3ccco3)ncnc2[nH]1`, in data set [2], the result was Active.
Still for that read-out and setting: with `Nc1nc2c(NCc3ccco3)ncnc2[nH]1` the entry was “Active”; with `CN(C)CCNc1nc2c(NCc3ccco3)ncnc2[nH]1`, “Active”; with `Nc1nc2c(NCc3ccco3)nc(Cl)nc2[nH]1`, “inactive”.
